From ChEMBL document CHEMBL3120061, “Novel spiroketal pyrrolidine GSK2336805 potently inhibits key hepatitis C virus genotype 1b mutants: from lead to clinical compound” (J Med Chem, 2014) come the findings set out here.

Assay [1] deals with Hepatitis C virus. Briefly: Antiviral activity against Hepatitis C virus genotype 1a in Huh-luc/neo-ET replicon cells after 48 hrs by replicon-based luciferase assay. To be noted: subtype 1a. In kind it is functional, organism-based, Hepacivirus hominis.
For assay [2], the system named is Hepatitis C virus. Briefly: Antiviral activity against Hepatitis C virus genotype 1b in Huh-luc/neo-ET replicon cells after 48 hrs by replicon-based luciferase assay. It counts as functional, organism-based, Hepacivirus hominis.

SMILES strings stand for the structures. Some results are limits rather than exact numbers.

With `COC(=O)N[C@H](C(=O)N1CCC[C@H]1c1ncc(-c2ccccc2)[nH]1)C(C)C`, the EC50 is 501 nM with Hepatitis C virus [1] and 200 nM with Hepatitis C virus [2].

Turning to `COC(=O)N[C@H](C(=O)N1CCC[C@H]1c1ncc(-c2ccc(-c3ccc(-c4cnc([C@@H]5CC6(CN5C(=O)[C@@H](NC(=O)OC)C(C)C)SCCS6)[nH]4)cc3)cc2)[nH]1)C(C)C`, the figures for the EC50 in the assay on Hepatitis C virus [1] and in the assay on Hepatitis C virus [2] were 0.0794 nM and 0.00398 nM, respectively.

Take `CC[C@H](NC(=O)OC)C(=O)N1CC2(C[C@H]1c1ncc(-c3ccc(-c4ccc(-c5cnc([C@@H]6CCCN6C(=O)[C@@H](NC(=O)OC)C(C)C)[nH]5)cc4)cc3)[nH]1)SCCS2`: the EC50 with Hepatitis C virus [1] is 0.0631 nM; in the assay with Hepatitis C virus [2], 0.00398 nM.

Consider `COC(=O)NCC(=O)N1CC2(C[C@H]1c1ncc(-c3ccc(-c4ccc(-c5cnc([C@@H]6CCCN6C(=O)[C@@H](NC(=O)OC)C(C)C)[nH]5)cc4)cc3)[nH]1)SCCS2`, for which the EC50 with Hepatitis C virus [1] is 0.631 nM; in the assay on Hepatitis C virus [2] it was 0.00501 nM.

For `COC(=O)N[C@H](C(=O)N1CCC[C@H]1c1ncc(-c2ccc(-c3ccc(-c4cnc([C@@H]5CC6(CN5C(=O)[C@@H](NC(=O)OC)C(C)C)OCCCO6)[nH]4)cc3)cc2)[nH]1)C(C)C`, the EC50 in the assay with Hepatitis C virus [1] is 0.0251 nM; in the assay with Hepatitis C virus [2], 0.00794 nM.

On to `COC(=O)N[C@@H](C)C(=O)N1CC2(C[C@H]1c1ncc(-c3ccc(-c4ccc(-c5cnc([C@@H]6CCCN6C(=O)[C@@H](NC(=O)OC)C(C)C)[nH]5)cc4)cc3)[nH]1)OCCCO2`, for which the EC50 in the assay on Hepatitis C virus [1] was 0.0794 nM; in the assay on Hepatitis C virus [2], 0.02 nM.

Take `COC(=O)N[C@H](C(=O)N1CCC[C@H]1c1ncc(-c2ccc(-c3ccc(-c4cnc([C@@H]5CC6(CN5C(=O)[C@@H](NC(=O)OC)C(C)C)OCC(C)(C)CO6)[nH]4)cc3)cc2)[nH]1)C(C)C`: the EC50 in the assay with Hepatitis C virus [1] was 0.794 nM; in the assay on Hepatitis C virus [2], 0.00251 nM.

Consider `COC(=O)N[C@H](C(=O)N1CCC[C@H]1c1ncc(-c2ccc(-c3ccc(-c4cnc([C@@H]5CC6(CN5C(=O)[C@@H](NC(=O)OC)C(C)C)O[C@@H](C)C[C@H](C)O6)[nH]4)cc3)cc2)[nH]1)C(C)C` (some centres not stated), for which the EC50 in the assay with Hepatitis C virus [1] was 2 nM; with Hepatitis C virus [2], 0.0126 nM.

In the case of `COC(=O)N[C@@H](C)C(=O)N1C(c2ncc(-c3ccc(-c4ccc(-c5cnc([C@@H]6CCCN6C(=O)[C@@H](NC(=O)OC)C(C)C)[nH]5)cc4)cc3)[nH]2)CCC12CCC(F)(F)CC2` (some centres not stated), the EC50 in the assay with Hepatitis C virus [1] was 0.631 nM; in the assay on Hepatitis C virus [2], 0.01 nM.

Take `COC(=O)N[C@@H](CC(C)C)C(=O)N1C(c2ncc(-c3ccc(-c4ccc(-c5cnc([C@@H]6CCCN6C(=O)[C@@H](NC(=O)OC)C(C)C)[nH]5)cc4)cc3)[nH]2)CCC12CCC(F)(F)CC2` (some centres not stated): the EC50 in the assay on Hepatitis C virus [1] was 2 nM; in the assay on Hepatitis C virus [2] it was 0.0126 nM.

For the compound `O=C(NC1CC1)c1ccc(-c2csc(NC(=O)[C@@H]3CCCN3C(=O)OCc3ccccc3)n2)cc1`, the 50% effective concentration (EC50) in the assay on Hepatitis C virus [1] is more than 20000 nM; in the assay with Hepatitis C virus [2], 126 nM.

As to `O=C(Nc1cccnc1)c1ccc(-c2csc(NC(=O)[C@@H]3COC4(CCOCC4)N3C(=O)OCc3ccccc3)n2)cc1`, the EC50 in the assay on Hepatitis C virus [1] is more than 20000 nM; with Hepatitis C virus [2], 0.251 nM.

Consider `CN(C)[C@@H](C(=O)N1CCC[C@H]1c1ncc(-c2ccc(-c3ccc(-c4cnc([C@@H]5COC6(CCOCC6)N5C(=O)OCc5ccccc5)[nH]4)cc3)cc2)[nH]1)c1ccccc1`, for which the EC50 is 1.58 nM in the assay with Hepatitis C virus [1] and 0.00631 nM in the assay on Hepatitis C virus [2].

Regarding `COC(=O)N[C@H](C(=O)N1CCC[C@H]1c1ncc(-c2ccc(-c3ccc(-c4cnc([C@@H]5COC6(CCOCC6)N5C(=O)OCc5ccccc5)[nH]4)cc3)cc2)[nH]1)C(C)C`, the figures for the EC50 with Hepatitis C virus [1] and in the assay on Hepatitis C virus [2] were 1.58 nM and 0.002 nM, respectively.

Turning to `CC(=O)N1CCC[C@H]1c1ncc(-c2ccc(-c3ccc(-c4cnc([C@@H]5CCCN5C(C)=O)[nH]4)cc3)cc2)[nH]1`, the EC50 is 794 nM in the assay on Hepatitis C virus [1] and 126 nM with Hepatitis C virus [2].

As to `COC(=O)N[C@H](C(=O)N1CCC[C@H]1c1ncc(-c2ccc(-c3ccc(-c4cnc(C5CCC6(CCOCC6)N5C(C)=O)[nH]4)cc3)cc2)[nH]1)C(C)C` (some centres not stated), the figures for the EC50 with Hepatitis C virus [1] and with Hepatitis C virus [2] were 0.316 nM and 0.0126 nM, respectively.

Regarding `COC(=O)N[C@H](C(=O)N1CCC[C@H]1c1ncc(-c2ccc(-c3ccc(-c4cnc(C5CCC6(CCC(F)(F)CC6)N5C(C)=O)[nH]4)cc3)cc2)[nH]1)C(C)C` (some centres not stated), the EC50 with Hepatitis C virus [1] is 25.1 nM; with Hepatitis C virus [2] it was 0.1 nM.

For the compound `COC(=O)N[C@H](C(=O)N1CCC[C@H]1c1ncc(-c2ccc(-c3ccc(-c4cnc(C5CCC6(CCOCC6)N5C(=O)OCc5ccccc5)[nH]4)cc3)cc2)[nH]1)C(C)C` (some centres not stated), the EC50 is 6.31 nM with Hepatitis C virus [1] and 0.00631 nM in the assay on Hepatitis C virus [2].

Consider `COC(=O)N[C@H](C(=O)N1CCC[C@H]1c1ncc(-c2ccc(-c3ccc(-c4cnc(C5CCC6(CCS(=O)(=O)CC6)N5C(=O)[C@@H](NC(=O)OC)C(C)C)[nH]4)cc3)cc2)[nH]1)C(C)C` (some centres not stated), for which the EC50 is 12.6 nM with Hepatitis C virus [1] and 0.316 nM in the assay with Hepatitis C virus [2].

With `COC(=O)N[C@H](C(=O)N1CCC[C@H]1c1ncc(-c2ccc(-c3ccc(-c4cnc(C5CCC6(CCOCC6)N5C(=O)[C@@H](NC(=O)OC)C(C)C)[nH]4)cc3)cc2)[nH]1)C(C)C` (some centres not stated), the values for the EC50 with Hepatitis C virus [1] and in the assay with Hepatitis C virus [2] were 1.58 nM and 0.0631 nM, respectively.

Turning to `COC(=O)N[C@H](C(=O)N1CCC[C@H]1c1ncc(-c2ccc(-c3ccc(-c4cnc(C5CCC6(CCC(F)(F)CC6)N5C(=O)[C@@H](NC(=O)OC)C(C)C)[nH]4)cc3)cc2)[nH]1)C(C)C` (some centres not stated), the EC50 with Hepatitis C virus [1] was 1.58 nM; with Hepatitis C virus [2], 0.0158 nM.

`CC[C@H](NC(=O)OC)C(=O)N1C(c2ncc(-c3ccc(-c4ccc(-c5cnc([C@@H]6CCCN6C(=O)[C@@H](NC(=O)OC)C(C)C)[nH]5)cc4)cc3)[nH]2)CCC12CCC(F)(F)CC2` (some centres not stated): the EC50 with Hepatitis C virus [1] was 1 nM; with Hepatitis C virus [2], 0.0158 nM.

Take `O=C(Nc1nc(-c2ccccc2)cs1)[C@@H]1CCCN1C(=O)OCc1ccccc1`: the concentration for a half-maximal effect (EC50) is more than 20000 nM in the assay on Hepatitis C virus [1] and 2510 nM with Hepatitis C virus [2].

Turning to `COC(=O)N[C@H](C(=O)N1CC2(CC1c1ncc(-c3ccc(-c4ccc(-c5cnc([C@@H]6CCCN6C(=O)[C@@H](NC(=O)OC)C(C)C)[nH]5)cc4)cc3)[nH]1)CN(S(C)(=O)=O)C2)C(C)C` (mixture of isomers), the values for the EC50 with Hepatitis C virus [1] and in the assay on Hepatitis C virus [2] were 1.26 nM and 0.0501 nM, respectively.

For the compound `COC(=O)N[C@H](C(=O)N1CC2(CC1c1ncc(-c3ccc(-c4ccc(-c5cnc([C@@H]6CCCN6C(=O)[C@@H](NC(=O)OC)C(C)C)[nH]5)cc4)cc3)[nH]1)CC(F)(F)C2)C(C)C` (mixture of isomers), the EC50 was 0.1 nM in the assay with Hepatitis C virus [1] and 0.00398 nM in the assay on Hepatitis C virus [2].

With `COC(=O)N[C@H](C(=O)N1CC2(CCN(C(=O)OC)CC2)CC1c1ncc(-c2ccc(-c3ccc(-c4cnc([C@@H]5CCCN5C(=O)[C@@H](NC(=O)OC)C(C)C)[nH]4)cc3)cc2)[nH]1)C(C)C` (mixture of isomers), the EC50 is 0.794 nM with Hepatitis C virus [1] and 0.0158 nM in the assay on Hepatitis C virus [2].

Consider `COC(=O)N[C@H](C(=O)N1CC2(CCOCC2)CC1c1ncc(-c2ccc(-c3ccc(-c4cnc([C@@H]5CCCN5C(=O)[C@@H](NC(=O)OC)C(C)C)[nH]4)cc3)cc2)[nH]1)C(C)C` (mixture of isomers), for which the figures for the EC50 in the assay with Hepatitis C virus [1] and with Hepatitis C virus [2] were 0.0631 nM and 0.0158 nM, respectively.

In the case of `COC(=O)N[C@H](C(=O)N1CC2(CC1c1ncc(-c3ccc(-c4ccc(-c5cnc([C@@H]6CCCN6C(=O)[C@@H](NC(=O)OC)C(C)C)[nH]5)cc4)cc3)[nH]1)CN(C(=O)OC(C)(C)C)C2)C(C)C` (mixture of isomers), the EC50 in the assay on Hepatitis C virus [1] is 1 nM; in the assay on Hepatitis C virus [2], 0.01 nM.

Consider `COC(=O)N[C@H](C(=O)N1CC2(CNC2)CC1c1ncc(-c2ccc(-c3ccc(-c4cnc([C@@H]5CCCN5C(=O)[C@@H](NC(=O)OC)C(C)C)[nH]4)cc3)cc2)[nH]1)C(C)C` (mixture of isomers), for which the EC50 is 3.16 nM in the assay with Hepatitis C virus [1] and 0.126 nM in the assay with Hepatitis C virus [2].

`COC(=O)N[C@H](C(=O)N1CC2(CC1c1ncc(-c3ccc(-c4ccc(-c5cnc([C@@H]6CCCN6C(=O)[C@@H](NC(=O)OC)C(C)C)[nH]5)cc4)cc3)[nH]1)CN(C(C)=O)C2)C(C)C` (mixture of isomers): the EC50 in the assay on Hepatitis C virus [1] was 1.26 nM; with Hepatitis C virus [2] it was 0.158 nM.

As for `COC(=O)N[C@H](C(=O)N1CC2(CC1c1ncc(-c3ccc(-c4ccc(-c5cnc([C@@H]6CCCN6C(=O)[C@@H](NC(=O)OC)C(C)C)[nH]5)cc4)cc3)[nH]1)CN(C(=O)OC)C2)C(C)C` (mixture of isomers), the EC50 with Hepatitis C virus [1] is 2 nM; in the assay on Hepatitis C virus [2], 0.0501 nM.

As for `CNC(=O)N1CC2(CC(c3ncc(-c4ccc(-c5ccc(-c6cnc([C@@H]7CCCN7C(=O)[C@@H](NC(=O)OC)C(C)C)[nH]6)cc5)cc4)[nH]3)N(C(=O)[C@@H](NC(=O)OC)C(C)C)C2)C1` (mixture of isomers), the values for the EC50 in the assay with Hepatitis C virus [1] and in the assay on Hepatitis C virus [2] were 6.31 nM and 0.251 nM, respectively.

As to `COC(=O)N[C@H](C(=O)N1CC2(CCS(=O)(=O)CC2)CC1c1ncc(-c2ccc(-c3ccc(-c4cnc([C@@H]5CCCN5C(=O)[C@@H](NC(=O)OC)C(C)C)[nH]4)cc3)cc2)[nH]1)C(C)C` (mixture of isomers), the EC50 in the assay on Hepatitis C virus [1] was 0.398 nM; in the assay with Hepatitis C virus [2] it was 0.0398 nM.

Consider `COC(=O)N[C@H](C(=O)N1CC2(CCN(C(=O)OC(C)(C)C)CC2)CC1c1ncc(-c2ccc(-c3ccc(-c4cnc([C@@H]5CCCN5C(=O)[C@@H](NC(=O)OC)C(C)C)[nH]4)cc3)cc2)[nH]1)C(C)C` (mixture of isomers), for which the half-maximal effective concentration (EC50) with Hepatitis C virus [1] is 10 nM; with Hepatitis C virus [2], 0.0398 nM.

Regarding `COC(=O)N[C@H](C(=O)N1CC2(CCNCC2)CC1c1ncc(-c2ccc(-c3ccc(-c4cnc([C@@H]5CCCN5C(=O)[C@@H](NC(=O)OC)C(C)C)[nH]4)cc3)cc2)[nH]1)C(C)C` (mixture of isomers), the EC50 in the assay on Hepatitis C virus [1] is more than 31.6 nM; in the assay with Hepatitis C virus [2] it was 1.58 nM.

As to `COC(=O)N[C@H](C(=O)N1CC2(CCN(C(C)=O)CC2)CC1c1ncc(-c2ccc(-c3ccc(-c4cnc([C@@H]5CCCN5C(=O)[C@@H](NC(=O)OC)C(C)C)[nH]4)cc3)cc2)[nH]1)C(C)C` (mixture of isomers), the EC50 was 10 nM in the assay on Hepatitis C virus [1] and 0.2 nM with Hepatitis C virus [2].
